From patent US20100160369A1, “S1P1 Agonists and Methods of Making And Using” (EXELIXIS, INC., priority 2008, published 2010)
pEC50: −log10 of the molar value.

The compounds below were run against T1, S1P1 (Homo sapiens, UniProt P21453) (assay: Tango β-arrestin Recruitment Assay in U2OS cells (Assay 2b)). Settings: Tango β-arrestin Recruitment Assay, read-out: Assay 2b EC50.
Assay type: cell-based
Design: linker with TEV protease (N1a) cleavage site (C)
Description: (§1) For the Tango™ β-arrestin recruitment assay, the cytoplasmic C-terminus of S1P1 is tethered to the tTA transcriptional activator with a linker that contains a cleavage site for the N1a protease from tobacco etch virus (TEV protease). The C-terminus of the human β-arrestin2 protein is fused to TEV protease. Binding of an agonist recruits the β-arrestin-TEV fusion protein to the receptor resulting in cleavage of the linker and release of tTA to enter the nucleus and subsequently activate a tTA-dependent luciferase reporter gene.
Alternatively, U2OS cells expressing the reporter gene and S1P1 (Invitrogen) were added to the wells of a 384-well white opaque bottom assay plate (PerkinElmer) at […] per well. The cells were serum starved for 48 h in Freestyle medium (Invitrogen). Test compounds were tested at maximum concentrations of 1 μM for the agonist assay. Compounds were diluted in DMSO (10 concentration points, 3-fold each) and added to the assay plate at a 1% final DMSO concentration. The efficacy control was 1 μM S1P (Avanti). For each compound, there were duplicate assay plates and each assay plate had duplicate wells per concentration point. The plate was incubated overnight at 37° C. The GeneBLAzer β-lactamase assay reagent (Invitrogen) was added and the plates were incubated for an additional 2 h at room temperature. Fluorescence was measured using an EnVision plate reader (PerkinElmer, Waltham, Mass.) at an excitation wavelength of 409 nm and emission wavelengths of 460 nm and 530 nm. The emission intensity at each wavelength was background subtracted against wells containing medium only and the F460 nm/F530 nm ratio determined for each concentration of the test compounds. Percent activity was calculated as [(test compound ratio−DMSO ratio)/(positive control ratio−DMSO ratio)*100], where the positive control and DMSO ratios are from cells incubated with the efficacy control 1 μM S1P and 1% DMSO, respectively. The percent activities were plotted against compound concentration to determine EC50 using XLFit (IDBS).
(§2) Assay 1 is the CNG cAMP Assay as described in Biological Example 1. Assay 2a and 2b are the Tango™ β-arrestin Recruitment Assay in HEK293 and U2OS cells, respectively, as described in Biological Example 2. Assay 3a is the hS1P1R GTPγS Binding Assay as described in Biological Example 3. Assay 3b is the GTP-Eu Binding Assay as described in Biological Example 3. EC50's were measured unless otherwise noted. […] In the table, “nt” means the Compound was not tested and “no” means the compound was tested but had no measurable activity under the assay conditions employed.
Target sequence in this assay (P21453 whole entry): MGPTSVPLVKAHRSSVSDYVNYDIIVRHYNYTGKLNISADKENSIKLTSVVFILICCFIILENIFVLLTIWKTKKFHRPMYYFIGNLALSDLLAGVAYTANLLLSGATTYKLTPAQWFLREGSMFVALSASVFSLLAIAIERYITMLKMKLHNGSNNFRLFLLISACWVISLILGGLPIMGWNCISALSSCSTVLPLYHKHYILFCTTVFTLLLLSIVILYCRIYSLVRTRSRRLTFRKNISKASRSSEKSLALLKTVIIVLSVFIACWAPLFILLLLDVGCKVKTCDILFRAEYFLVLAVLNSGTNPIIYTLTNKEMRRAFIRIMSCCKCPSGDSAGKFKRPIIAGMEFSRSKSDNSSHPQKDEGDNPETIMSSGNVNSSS
Target sequence in this assay (P32121 whole entry partner): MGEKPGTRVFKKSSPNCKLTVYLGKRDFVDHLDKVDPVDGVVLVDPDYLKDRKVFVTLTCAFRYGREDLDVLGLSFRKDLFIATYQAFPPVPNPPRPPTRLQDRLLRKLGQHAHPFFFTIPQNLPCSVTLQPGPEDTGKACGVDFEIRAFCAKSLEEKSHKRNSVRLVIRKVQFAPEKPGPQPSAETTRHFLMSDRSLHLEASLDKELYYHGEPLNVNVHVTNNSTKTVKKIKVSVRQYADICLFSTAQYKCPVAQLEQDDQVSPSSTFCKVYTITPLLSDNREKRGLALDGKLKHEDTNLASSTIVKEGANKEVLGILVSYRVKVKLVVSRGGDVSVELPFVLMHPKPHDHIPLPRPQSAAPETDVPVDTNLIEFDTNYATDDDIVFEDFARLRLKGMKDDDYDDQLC

SMILES | pEC50
CC(O)COc1cc(Cl)c(-c2nnc(-c3cn4cc(C(F)(F)F)cc(Cl)c4n3)o2)cc1Cl (stereo not shown) [Entry 4] | ≥ 7.00
O=C(O)CC(=O)COc1cc(Cl)c(-c2noc(-c3cn4cc(C(F)(F)F)cc(Cl)c4n3)n2)cc1Cl [Entry 5] | ≥ 7.00
O=P(O)(O)OC(CO)COc1cc(Cl)c(-c2noc(-c3cn4cc(C(F)(F)F)cc(Cl)c4n3)n2)cc1Cl (stereo not shown) [Entry 9] | ≥ 7.00
CS(=O)(=O)COc1cc(Cl)c(-c2noc(-c3cn4cc(C(F)(F)F)cc(Cl)c4n3)n2)cc1Cl [Entry 12] | ≥ 7.00
CC(O)COc1cc(Cl)c(-c2nnc(-c3cn4cc(C(F)(F)F)cc(Cl)c4n3)s2)cc1Cl (stereo not shown) [Entry 13] | ≥ 7.00
C[C@@H](COc1cc(Cl)c(-c2noc(-c3cn4cc(C(F)(F)F)cc(Cl)c4n3)n2)cc1Cl)OP(=O)(O)O [Entry 14] | ≥ 7.00
NC(COc1cc(Cl)c(-c2noc(-c3cn4cc(C(F)(F)F)cc(Cl)c4n3)n2)cc1Cl)COP(=O)(O)O (stereo not shown) [Entry 15] | ≥ 7.00
O=C(COc1cc(Cl)c(-c2noc(-c3cn4cc(C(F)(F)F)cc(Cl)c4n3)n2)cc1Cl)C(F)(F)F [Entry 18] | ≥ 7.00
OCC(O)CNc1cc(Cl)c(-c2noc(-c3cn4cc(C(F)(F)F)cc(Cl)c4n3)n2)cc1Cl (stereo not shown) [Entry 29] | ≥ 7.00
OCCNc1cc(Cl)c(-c2noc(-c3cn4cc(C(F)(F)F)cc(Cl)c4n3)n2)cc1Cl [Entry 30] | ≥ 7.00
O=C(CO)COc1cc(Cl)c(-c2noc(-c3cn4cc(C(F)(F)F)cc(Cl)c4n3)n2)cc1Cl [Entry 34] | ≥ 7.00
N[C@H](CO)COc1cc(Cl)c(-c2nnc(-c3cn4cc(C(F)(F)F)ccc4n3)s2)cc1F [Entry 43] | ≥ 7.00
CC(N)(CO)COc1cc(Cl)c(-c2nnc(-c3cn4cc(C(F)(F)F)ccc4n3)s2)cc1F (stereo not shown) [Entry 44] | ≥ 7.00
COc1ccc2nc(-c3nnc(-c4cc(F)c(OCC(N)CO)cc4Cl)s3)cn2c1 (stereo not shown) [Entry 45] | ≥ 7.00
CC(N)(CO)COc1cc(Cl)c(-c2nnc(-c3cn4cc(C(F)(F)F)cc(Cl)c4n3)s2)cc1F (stereo not shown) [Entry 46] | ≥ 7.00
O=C(COc1cc(Cl)c(-c2noc(-c3cn4cc(C(F)(F)F)cc(Cl)c4n3)n2)cc1Cl)COP(=O)(O)O [Entry 51] | ≥ 7.00
O=P(O)(O)COc1cc(Cl)c(-c2noc(-c3cn4cc(C(F)(F)F)cc(Cl)c4n3)n2)cc1Cl [Entry 52] | ≥ 7.00
O=P(O)(O)OCC(O)COc1cc(Cl)c(-c2noc(-c3cn4cc(C(F)(F)F)cc(Cl)c4n3)n2)cc1Cl (stereo not shown) [Entry 53] | ≥ 7.00
OCC(CO)NCCOc1cc(Cl)c(-c2noc(-c3cn4cc(C(F)(F)F)cc(Cl)c4n3)n2)cc1Cl [Entry 65] | ≥ 7.00
NC(CO)COc1cc(Cl)c(-c2nc(-c3cn4cc(C(F)(F)F)cc(Cl)c4n3)no2)cc1Cl (stereo not shown) [Example 80, 2-amino-3-[(2,5-dichloro-4-{3-[8-chloro-6-(trifluoromethyl)imidazo[1,2-a]pyridin-2-yl]-1,2,4-oxadiazol-5-yl}phenyl)oxy]propan-1-ol] | ≥ 7.00
NC(COc1cc(Cl)c(-c2nnc(-c3cn4cc(C(F)(F)F)cc(Cl)c4n3)s2)cc1F)COP(=O)(O)O (stereo not shown) [Example 82, 2-amino-3-[(5-chloro-4-{5-[8-chloro-6-(trifluoromethyl)imidazo[1,2-a]pyridin-2-yl]-1,3,4-thiadiazol-2-yl}-2-fluorophenyl)oxy]propyl dihydrogen phosphate] | ≥ 7.00
NC(CO)COc1cc(Cl)c(-c2nnc(-c3cn4cc(C(F)(F)F)ccc4n3)s2)cc1Cl (stereo not shown) [Example 100, 2-amino-3-[(2,5;dichloro-4-{5-[6-(trifluomethyl)imidazo[1,2-a]pyridin-2-yl] 1,3,4-thiadiazol-2-yl}phenyl)oxy]propan-1-ol] | ≥ 7.00
NC(CO)COc1cc(Cl)c(-c2nnc(-c3cn4cc(Cl)ccc4n3)s2)cc1F (stereo not shown) [Example 101, 2-amino-3-({5-chloro-4-[5-(6-chloroimidazo[1,2-a]pyridin-2-yl)-1,3,4-thiadiazol-2-yl]-2-fluorophenyl}oxy)propan-1-ol] | ≥ 7.00
NC(CO)COc1cc(Cl)c(-c2nnc(-c3cn4cc(I)ccc4n3)s2)cc1F (stereo not shown) [Example 102, 2-amino-3-({5-chloro-2-fluoro-4-[5-(6-iodoimidazo[1,2-a]pyridin-2-yl)-1,3,4-thiadiazol-2-yl]phenyl}oxy)propan-1-ol] | ≥ 7.00
NC(CO)(CO)CCc1cc(Cl)c(-c2noc(-c3cn4cc(C(F)(F)F)cc(Cl)c4n3)n2)cc1F [Example 154, 2-amino-2-[2-(5-chloro-4-{5-[8-chloro-6-(trifluoromethyl)imidazo[1,2-a]pyridin-2-yl]-1,2,4-oxadiazol-3-yl}-2-fluorophenyl)ethyl]propane-1,3-diol] | ≥ 7.00
C[C@H](CO)Oc1cc(Cl)c(-c2noc(-c3cn4cc(C(F)(F)F)cc(Cl)c4n3)n2)cc1Cl [Example 155, (2R)-2-[(2,5-dichloro-4-{5-[8-chloro-6-(trifluoromethyl)imidazo[1,2-a]pyridin-2-yl]-1,2,4-oxadiazol-3-yl}phenyl)oxy]propan-1-ol] | ≥ 7.00
C[C@@H](CO)Oc1cc(Cl)c(-c2noc(-c3cn4cc(C(F)(F)F)cc(Cl)c4n3)n2)cc1Cl [Example 156, (2S)-2-[(2,5-dichloro-4-{5-[8-chloro-6-(trifluoromethyl)imidazo[1,2-a]pyridin-2-yl]-1,2,4-oxadiazol-3-yl}phenyl)oxy]propan-1-ol] | ≥ 7.00

Same assay, conditions: Tango β-arrestin Recruitment Assay, relative EC50 was measured (footnote 1), read-out: Assay 2b Relative EC50

SMILES | pEC50
CC(C)(CO)Oc1cc(Cl)c(-c2noc(-c3cn4cc(C(F)(F)F)cc(Cl)c4n3)n2)cc1Cl [Entry 26] | 6.30 to 7.00

Each compound was assayed against T1, S1P1 (assay: CNG cAMP Assay (Assay 1)). Settings: read-out: Assay 1 EC50.
Assay type: cell-based
Design: host or cells: HEK293 cells expressing the CNG channel
Outline: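 HEK293 cells expressing CNG channel and S1P1, membrane-potential dye loaded; compounds (top 10 μM, 10-point 3-fold, 1.8% DMSO) added with 25 μM Ro 20-1724, 500 nM NECA and 10 nM S1P for 90 min. T90/T0 fluorescence (Ex 350/Em 590 nm) normalised to NECA-alone vs DMSO; EC50 fitted.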
Target sequence in this assay (P21453 whole entry): as the sequence (P21453 whole entry) above

SMILES | pEC50
CS(=O)(=O)Cc1ccc(-c2noc(-c3cn4cc(C(F)(F)F)cc(Cl)c4n3)n2)c(Cl)c1 [Example 275, 8-chloro-2-(3-{2-chloro-4-[(methylsulfonyl)methyl]phenyl}-1,2,4-oxadiazol-5-yl)-6-(trifluoromethyl)imidazo[1,2-a]pyridine] | ≥ 7.00
O=C(O)CCc1cc(Cl)c(-c2nnc(-c3cn4cc(C(F)(F)F)cc(Cl)c4n3)o2)cc1F [Example 282, 3-(5-chloro-4-{5-[8-chloro-6-(trifluoromethyl)imidazo[1,2-a]pyridin-2-yl]-1,3,4-oxadiazol-2-yl}-2-fluorophenyl)propanoic acid] | ≥ 7.00
O=C(O)CCc1c(Cl)cc(-c2nc(-c3cn4cc(C(F)(F)F)cc(Cl)c4n3)no2)cc1Cl [Example 314, 3-(2,6-dichloro-4-{3-[8-chloro-6-(trifluoromethyl)imidazo[1,2-a]pyridin-2-yl]-1,2,4-oxadiazol-5-yl}phenyl)propanoic acid] | ≥ 7.00

What follows are compounds tested against T1, S1P1 (assay: Tango β-arrestin Recruitment Assay in HEK293 cells (Assay 2a)). Settings: Tango β-arrestin Recruitment Assay, read-out: Assay 2a EC50.
Assay type: cell-based
Design: linker with TEV protease (N1a) cleavage site (C); host or cells: HEK293, transiently transfected
Description: as §1
Frozen HEK293 cells transiently transfected with receptor cDNAs for S1P1 (Invitrogen) were thawed and suspended in 10 mL of Pro293a-CDM culture medium (Invitrogen) supplemented with 4 mM L-Glutamine (Invitrogen), 1× Pen/Strep (100 units/mL penicillin and 100 μg/mL streptomycin, Invitrogen) and 0.1% fatty acid free BSA (Sigma-Aldrich). Cells were added to the wells of a 384-well white opaque bottom assay plate (PerkinElmer) at 3,000-6,000 cells per well and the plate was incubated for approximately 4 h in a 37° C. incubator. Test compounds were tested at maximum concentrations of 10 μM for the agonist assays. Compounds were diluted in DMSO (10 concentration points, 3-fold each) and added to the assay plate at a 1% final DMSO concentration. For each compound, there were duplicate assay plates and each assay plate had duplicate wells per concentration point. The plate was incubated at 37° C. for 30 min. The efficacy control was 5 μM S1P (Avanti). Following agonist addition, the assay plates were incubated in a 37° C. incubator for 16-18 h. Luciferase assay reagent was added and luminescence measured in an EnVision plate reader (PerkinElmer). To determine agonist activity, percent activity was calculated as [(test compound−background)/(positive control−background)* 100], where background is the luminescence of the DMSO alone control and the positive control is the luminescence from cells incubated with the efficacy control 5 μM S1P. The percent activities were plotted against compound concentration to determine EC50 using XLFit (IDBS).
Target sequence in this assay (P21453 whole entry): as above
Target sequence in this assay (P32121 whole entry partner): as the sequence (P32121 whole entry partner) above
as §2

SMILES | pEC50
CS(=O)(=O)Cc1ccc(-c2noc(-c3cn4cc(C(F)(F)F)cc(Cl)c4n3)n2)c(Cl)c1 [Example 275, 8-chloro-2-(3-{2-chloro-4-[(methylsulfonyl)methyl]phenyl}-1,2,4-oxadiazol-5-yl)-6-(trifluoromethyl)imidazo[1,2-a]pyridine] | 6.30 to 7.00
O=C(O)CCc1cc(Cl)c(-c2nnc(-c3cn4cc(C(F)(F)F)cc(Cl)c4n3)o2)cc1F [Example 282, 3-(5-chloro-4-{5-[8-chloro-6-(trifluoromethyl)imidazo[1,2-a]pyridin-2-yl]-1,3,4-oxadiazol-2-yl}-2-fluorophenyl)propanoic acid] | ≥ 7.00
O=C(O)CCc1c(Cl)cc(-c2nc(-c3cn4cc(C(F)(F)F)cc(Cl)c4n3)no2)cc1Cl [Example 314, 3-(2,6-dichloro-4-{3-[8-chloro-6-(trifluoromethyl)imidazo[1,2-a]pyridin-2-yl]-1,2,4-oxadiazol-5-yl}phenyl)propanoic acid] | ≥ 7.00
